In patent publication US20260137668A1, “EZH2 INHIBITION THERAPIES FOR THE TREATMENT OF BRCA1-ASSOCIATED PROTEIN (BAP1) MUTATED CANCERS” (Constellation Pharmaceuticals, Inc., priority 2022, published 2026):

Assays:
[1] = test system: pleural or peritoneal BAP1 loss mesothelioma; test: human clinical phase 2 study, Compound 1 monotherapy, response by cancer cohort; type: in vivo; details: intermediate cut-off date
Protocol: As part of a human clinical phase 2 study, subjects with pleural or peritoneal BAP1 loss mesothelioma were administered 350 mg/day Compound 1 for up to about 7.5 months (FIG. 1). Compound 1 was administered orally as a single agent (monotherapy). The cancers in each subject were known to have BAP1 mutations as determined by next generation sequencing (NGS) or local immunohistochemistry (IHC) testing prior to treatment. A complete response is characterized as disappearance of all lesions, a partial response is characterized as at least a 30% decrease in the sum of the longest diameter (LD) of target lesions, taking as reference the baseline sum LD; stable disease is characterized as neither sufficient shrinkage to qualify for partial response nor sufficient increase to qualify for progressive disease, taking as reference the smallest sum diameters; and progressive disease is characterized as at least a 20% increase in the sum of the LD of target lesions, taking as reference the smallest sum LD recorded since the treatment started or the appearance of one or more new lesions.

[2] = test system: H2052; test: CellTiter-Glo 2.0 long-term cell viability assay; type: cell-based; details: Homo sapiens, H2052, BAP1 wildtype
Protocol: (§1) The ability of Compound 1 to selectivity suppress mesothelioma cancer cell viability was assessed in a panel of cell lines after 7, 14 and 21 days of treatment with Compound 1. Cell viability was determined using CellTiter-Glo®2 luminescent cell viability assay.
(§2) Cell culture conditions. MSTO-211H, H2052, H2452, H28, H226 cell lines were obtained from ATCC (Manassas, VA) and were grown in media as recommended by the vendor. For long-term assays, cells were plated in 96-well plates containing. Compound 1. Cell lines were treated with a dose titration of Compound 1 starting at 2 μM top concentration.
(§3) Cellular assay—assessment of cell viability. Relative cell numbers were assessed by CellTiter-Glo® 2.0 luminescent cell viability assay (Promega Catalog #G9243) using a Perkin Elmer EnVision Alpha Reader (Model #2104, Waltham, MA). 50 μL of CellTiter-Glo® 2.0 reagent was added to each well containing 100 μL cell suspension and incubated for 30 min at RT with shaking at low speed. GraphPad Prism was used for curve fitting and GI50 determinations.

[3] = test system: H226; test: CellTiter-Glo 2.0 long-term cell viability assay; type: cell-based; details: Homo sapiens, H226, BAP1 mutant
Protocol: as §1, §2, §3

[4] = test system: H2452; test: CellTiter-Glo 2.0 long-term cell viability assay; type: cell-based; details: Homo sapiens, H2452, BAP1 mutant
Protocol: as §1, §2, §3

[5] = test system: H28; test: CellTiter-Glo 2.0 long-term cell viability assay; type: cell-based; details: Homo sapiens, H28, BAP1 mutant
Protocol: as §1, §2, §3

[6] = test system: MSTO-211H; test: CellTiter-Glo 2.0 long-term cell viability assay; type: cell-based; details: Homo sapiens, BAP1 wildtype
Protocol: as §1, §2, §3

[7] = test system: PXF 1118; test: pleural mesothelioma PDX model, tumor growth inhibition; type: in vivo, NMRI nu/nu mice; details: PXF 1118, 75 mg/kg p.o. QD; without a statistically significant reduction in tumor volume
Protocol: (§4) Compound 1 was evaluated in 6 patient-derived xenograft (PDX) models of pleural mesothelioma with BAP1 alterations (Table 3) implanted subcutaneously in immunodeficient mice (NSG mice in the case of tumor model PXF 2328, NMRI nu/nu mice for all other tumor models). Each experiment had two groups of generally five mice each enrolled at tumor volumes in the range of 53.9-198.9 mm^3. The first group was a vehicle control group, while the second group was treated with Compound 1, administered orally (p.o.) once daily (QD) at a dose level of 75 mg/kg. The duration of the experiments ranged between 30 and 65 days.
(§5) Antitumor efficacy of all groups was assessed using the vehicle control group as a reference. Tumor growth inhibition was determined by the comparison of tumor growth in the test groups with the vehicle control group and is expressed as the maximum tumor growth inhibition (TGI) value in percent. The statistical significance of differences between test and control groups was assessed using the non-parametric U-test.

[8] = test system: PXF 2443; test: as above; type: in vivo, NMRI nu/nu mice; details: PXF 2443, 75 mg/kg p.o. QD; without a statistically significant reduction in tumor volume
Protocol: as §4, §5

[9] = test system: PXF 537; test: as above; type: in vivo, NMRI nu/nu mice; details: PXF 537, 75 mg/kg p.o. QD; statistically significant reduction in tumor volume vs control
Protocol: as §4, §5

[10] = test system: PXF 541; test: as above; type: in vivo, NMRI nu/nu mice; details: PXF 541, 75 mg/kg p.o. QD; statistically significant reduction in tumor volume vs vehicle (U-test)
Protocol: as §4, §5

[11] = test system: PXF 680; test: as above; type: in vivo, NMRI nu/nu mice; details: PXF 680, 75 mg/kg p.o. QD; statistically significant reduction in tumor volume vs vehicle (U-test)
Protocol: as §4, §5

[12] = test system: PXF 2328; test: as above; type: in vivo; details: PXF 2328 implanted in NSG mice, 75 mg/kg p.o. QD
Protocol: as §4, §5

[13] = test system: pleural mesothelioma PDX models with BAP1 alterations; test: panel of 6 PDX models of pleural mesothelioma with BAP1 alterations; type: in vivo, mice; details: 75 mg/kg p.o. QD
Protocol: as §4, §5

[14] = 350 mg/day oral monotherapy, efficacy evaluable patients N = 9

COC1CN([C@H]2CC[C@H]([C@@]3(C)Oc4c(Cl)cc(C(=O)NCc5c(SC)cc(C)[nH]c5=O)c(C)c4O3)CC2)C1 [Compound 1, (R)-7-chloro-2-((1r,4R)-4-(3-methoxyazetidin-1-yl)cyclohexyl)-2,4-dimethyl-N-((6-methyl-4-(methylthio)-2-oxo-1,2-dihydropyridin-3-yl)methyl)benzo[d][1,3]dioxole-5-carboxamide]
Complete response [1, 14]: 0 n (%) | Partial response [1, 14]: 2 (22.2) n (%) | Progressive disease [1, 14]: 3 (33.3) n (%) | Stable disease [1, 14]: 4 (44.4) n (%) | patients showing (partial) response and stable disease [1]: > 60% | GI50 ([2]; NCI-H2052, 168 h, Day 7): > 2000 nM | GI50 ([2]; NCI-H2052, 336 h, Day 14): > 2000 nM | GI50 ([2]; NCI-H2052, 504 h, Day 21): > 2000 nM | GI50 ([3]; NCI-H226, 168 h, Day 7): > 2000 nM | GI50 ([3]; NCI-H226, 336 h, Day 14): > 2000 nM | GI50 ([3]; NCI-H226, 504 h, Day 21): > 2000 nM | GI50 ([4]; NCI-H2452, 168 h, Day 7): > 2000 nM | GI50 ([4]; NCI-H2452, 336 h, Day 14): 6 nM | GI50 ([4]; NCI-H2452, 504 h, Day 21): 5 nM | GI50 ([5]; NCI-H28, 168 h, Day 7): > 2000 nM | GI50 ([5]; NCI-H28, 336 h, Day 14): 234 nM | GI50 ([5]; NCI-H28, 504 h, Day 21): 45 nM | GI50 ([6]; 168 h, Day 7): > 2000 nM | GI50 ([6]; 336 h, Day 14): > 2000 nM | GI50 ([6]; 504 h, Day 21): > 2000 nM | effect on tumor growth [7]: slowed growth | effect on tumor growth [8]: slowed growth | effect on tumor growth [9]: almost stasis | maximum tumor growth inhibition (TGI) [10]: > 100% | maximum tumor growth inhibition (TGI) [11]: > 100% | effect on tumor growth [12]: inactive | PDX models with a relevant TGI of greater than 50% [13]: 4 out of the 6
